Measurements: patent US8129533B2, “Method for production of quinolone-containing lyophilized preparation” (Dalichi Sankyo Company, Limited, priority 2005, dated 2012)

Tests used:
[1] = Reconstitution time of lyophilized preparation (with vs without annealing step); type: physicochemical; settings: for reconstitution time of lyophilized preparation: lyophilized preparation (20 mg/mL, pH-adjusting agent only) prepared with an annealing step vs without, water for injection 10 mL, moderate shaking, FIG. 8
Excerpt: After a drug solution had been prepared in a manner similar to that described above, the solution was charged into a container and frozen under the conditions shown in Table 2, and then was lyophilized in a manner similar to that described above, followed by measurement of the time required for reconstitution (hereinafter the time may be referred to as a “reconstitution time”). The state observed about 30 seconds after injection of a liquid for reconstitution is shown in FIG. 2 (method without annealing step) or FIG. 3 (method with an annealing step).
Lyophilization was performed under varied annealing conditions (e.g., temperature and maintenance time for an annealing step) as shown in Table 3. […] Reconstitution time was measured through the following procedure: after completion of lyophilization, water for injection was added to a vial in an amount equal to that of the liquid charged into the vial, followed by moderate shaking, and the time required for complete dissolution of the content of the vial was measured.
Water for injection (10 mL) was added to a vial, followed by moderate shaking, and the time required for complete dissolution of the content of the vial was measured.

[2] = DSC of frozen product of compound-containing aqueous solution (glass transition temperature); type: physicochemical; settings: frozen product of Table 1 formulation
Excerpt: The temperature of the annealing step may be determined on the basis of the glass transition temperature of the frozen product of the compound (1)-containing aqueous solution obtained through the freezing step. Specifically, the temperature of the frozen product is elevated to a level equal to or higher than the glass transition temperature thereof, and then maintained for a predetermined period of time. The glass transition temperature of the frozen product may be determined through, for example, DSC of the frozen product, and this DSC may be performed according to a generally employed method. The glass transition temperature of frozen products is varied in accordance with, for example, the compositional proportions of ingredients of starting solutions for the products. Therefore, different frozen products are subjected to DSC for determination of the glass transition temperature thereof.
For example, in the DSC chart of the frozen product containing compound (I) and pH-adjusting agents having a formulation shown in Table 1, the peak corresponding to the glass transition temperature of the frozen product rises at about −14.0° C. (FIG. 5). […] Therefore, when the annealing step is performed at a temperature equal to or higher than this temperature, the annealing effect is expected to be attained.

[3] = tested on: drug-resistant Gram-positive bacteria such as methicillin-resistant staphylococci, penicillin-resistant pneumococci, and vancomycin-resistant enterococci; settings: cited from earlier work
drug-resistant bacteria = settings: cited from earlier work

Row | Structure (SMILES) | reconstitution time of lyophilized preparation [1] | also measured
1 | CC1COc2c(N3CCN(C)CC3)c(F)cc3c(=O)c(C(=O)O)cn1c23 (racemic) [ofloxacin, (±)-9-fluoro-2,3-dihydro-3-methyl-10-(4-methyl-1-piperazinyl)-7-oxo-7H-pyrido[1,2,3-de][1,4]benzoxazine-6-carboxylic acid] | reduced reconstitution time | 
2 | COc1c(N2CC[C@@H](C3(N)CC3)C2)ccc2c(=O)c(C(=O)O)cn([C@@H]3C[C@@H]3F)c12 [compound (I), 7-[3-(R)-(1-aminocyclopropyl)pyrrolidin-1-yl]-1-[2-(S)-fluoro-1-(R)-cyclopropyl]-1,4-dihydro-8-methoxy-4-oxoquinoline-3-carboxylic acid] |  | reconstituting property of lyophilized cake ([1]; Table 1 formulation, frozen product maintained between glass transition temperature and a temperature at which it does not thaw): improved reconstituting property; temperature at which the glass transition peak starts (DSC) [2]: about −17 °C; antibacterial activity [3]: high antibacterial activity
3 | COc1c(N2CC3(CC3)[C@](C)(N)C2)c(F)cc2c(=O)c(C(=O)O)cn([C@@H]3C[C@@H]3F)c12 [compound (II), (+)-7-[(7S)-7-amino-7-methyl-5-azaspiro[2.4]heptan-5-yl]-6-fluoro-1-[(1R,2S)-2-fluoro-1-cyclopropyl]-1,4-dihydro-8-methoxy-4-oxo-3-quinolinecarboxylic acid hemihydrate] | reduced reconstitution time | antibacterial activity (drug-resistant bacteria): excellent antibacterial activity
4 | C[C@H]1COc2c(N3CCN(C)CC3)c(F)cc3c(=O)c(C(=O)O)cn1c23 [levofloxacin, (−)-(S)-9-fluoro-2,3-dihydro-3-methyl-10-(4-methyl-1-piperazinyl)-7-oxo-7H-pyrido[1,2,3-de][1,4]benzoxazine-6-carboxylic acid hemihydrate] | reduced reconstitution time | 
5 | N[C@@H]1CN(c2c(F)cc3c(=O)c(C(=O)O)cn([C@@H]4C[C@@H]4F)c3c2Cl)CC12CC2 [sitafloxacin, (−)-7-[(7S)-7-amino-5-azaspiro[2.4]heptan-5-yl]-8-chloro-6-fluoro-1-[(1R,2S)-2-fluoro-1-cyclopropyl]-1,4-dihydro-4-oxo-3-quinolinecarboxylic acid sesquihydrate] | reduced reconstitution time | 
